Reference: patent US20230341377A1, “DISCONNECTION AGENTS” (DC Europa Limited, priority 2020, published 2023)

Tests used:
[1] = tested on: Hs578T cells; test: SMS assay in Hs578T cells; assay type: cell-based, human; details: versus vehicle and PMA (5 nM), FIG. 2A, 2B, 2D, 2E
Source text: The SMS assay was developed to assess the transfer of cell dye (for example the acetoxymethyl [AM]-based Calcein AM), between cancer cells. The SMS assay can be applied to any cell lines forming tumour networks such as tumour microtubes (TM) or tunneling nanotubes (TNT), which enable the transfer of molecules across cells. The SMS assay can be used to assess networking capabilities of any cancer cell lines including HepG2 hepatocellular carcinoma cells, Hs578T cell line for human breast cancer, and U373 cell line for human glioblastoma.
The SMS assay is illustrated in FIG. 1. For the SMS assay, two sets of cells are stained with the cell dye of choice and a customary cell tracker dye (for example cell tracker blue) using established staining techniques (steps 1 and 2). Each set of cells are then co-incubated with the compound of interest to assess its capabilities to modulate the cells small molecule sharing characteristics (step 3). Then the two sets of cells are combined on a plate, for example at a ratio of 1:1, and cultured in the presence of the compound of interest (Step 4).
Finally, live cells are evaluated for viability and analyzed by flow cytometry for the uptake of cell dye in the […] cells (Step 5). The comparison of cell tracker uptake against positive and negative control enables the assessment of the compound's ability to modulate the tumour networks including those formed by TM and TNTs
The SMS assay has been applied to assess the modulation of network sharing capabilities of Protein Kinase C Modulators (PKCm) at various concentrations in the Hs578 cell line for human breast cancer, U373 cell line of human glioblastoma, and HepG2 hepatocellular carcinoma cells. PBS vehicle was used as negative control and the PKCm PHORBOL 12-MYRISTATE 13-ACETATE (PMA) at a concentration of 5 nM was used as the positive control.
FIG. 2A and FIG. 2B show the percentage of cell tracker cells that were accepting the cell dye transfer from separately stained donor cells according to the SMS assay of Example. The percentage of acceptor cells detected is shown in comparison to vehicle (upper horizontal line) and PMA at 5-10 nM concentration (lower horizontal line). Active PKCm in the SMS assay (FIG. 2A) show a decrease in acceptor cells relative to vehicle at certain concentration. […] The upper limit of the tested concentrations was determined as the maximal non-cytotoxic dose.

[2] = tested on: patient-derived glioblastoma cells from the Glio10535 model; test: Example 5: subcutaneous Glio10535 glioblastoma, TPPB with temozolomide, relative tumour volume; assay type: in vivo, NMRI nude mice
Description: NMRI nude mice were subcutaneously implanted with patient-derived glioblastoma cells from the Glio10535 model (Orthmann et al.) on day 0.
Animals were stratified into the treatment groups on day 6 after tumour implantation to achieve similar average tumour volumes per group. Minimal tumour sizes were 44 mm^3 and maximal tumour sizes were 247 mm^3. Vehicle animals (n=9) were treated with a mix of DMSO, Tween20 and PBS. Each 5 animals were orally dosed with temozolomide chemotherapy at 25 mg/kg (TMZ 25) and at 50 mg/kg (TMZ 50) on consecutive days per week. Each week represents one chemotherapy cycle of 5 treatment days and 2 off-treatment days. TPPB was dosed intraperitoneally in combination with 25 mg/kg oral temozolomide either continuously at 0.2 mg/kg (n=10) or intermittently (n=10) at 0.1, 0.4, and 0.7 mg/kg starting with the last dose of every TMZ 25 cycle and ending the day before the next treatment cycle. Before the start of chemotherapy, TPPB was titrated to its target dose.

[3] = tested on: human patient-derived S24 glioblastoma cells; test: Example 6: orthotopic S24 glioblastoma, TPPB followed by radiotherapy, intravital microscopy; assay type: in vivo, NMRI mice
Description: Orthotopic brain tumours were induced in NMRI mice using human patient-derived S24 glioblastoma cells exactly as described in Example 4. Once significant tumours were established in vivo (approximately 35 days after implantation), as shown by intravital microscopy exactly as described in Example 4, mice received 4 intraperitoneal injections on day -1, day 6 and day 13 and day 20, with Control mice receiving vehicle only and Treated mice receiving TPPB at 200 μg/kg. All mice then received radiotherapy on days 0, 1 and 2 exactly as described in Example 4, except that the radiation dose was 6 Gy as opposed to 7 Gy on each occasion (18 Gy total radiation dose as opposed to 21 Gy total radiation dose). The impact of treatment on the tumour was then monitored by intravital microscopy at intervals after the initiation of radiotherapy on day 0.

[4] = target: PKCα (Homo sapiens, UniProt P17252); parameters: key: +—activation; ++—strong activation; details: cPKCs, gene PRKCA; cited from earlier work
[5] = target: PKCδ (Homo sapiens, UniProt Q05655); parameters: key: +—activation; ++—strong activation; details: nPKCs, gene PRKCD; cited from earlier work
Chain of PKCδ (Q05655 whole entry): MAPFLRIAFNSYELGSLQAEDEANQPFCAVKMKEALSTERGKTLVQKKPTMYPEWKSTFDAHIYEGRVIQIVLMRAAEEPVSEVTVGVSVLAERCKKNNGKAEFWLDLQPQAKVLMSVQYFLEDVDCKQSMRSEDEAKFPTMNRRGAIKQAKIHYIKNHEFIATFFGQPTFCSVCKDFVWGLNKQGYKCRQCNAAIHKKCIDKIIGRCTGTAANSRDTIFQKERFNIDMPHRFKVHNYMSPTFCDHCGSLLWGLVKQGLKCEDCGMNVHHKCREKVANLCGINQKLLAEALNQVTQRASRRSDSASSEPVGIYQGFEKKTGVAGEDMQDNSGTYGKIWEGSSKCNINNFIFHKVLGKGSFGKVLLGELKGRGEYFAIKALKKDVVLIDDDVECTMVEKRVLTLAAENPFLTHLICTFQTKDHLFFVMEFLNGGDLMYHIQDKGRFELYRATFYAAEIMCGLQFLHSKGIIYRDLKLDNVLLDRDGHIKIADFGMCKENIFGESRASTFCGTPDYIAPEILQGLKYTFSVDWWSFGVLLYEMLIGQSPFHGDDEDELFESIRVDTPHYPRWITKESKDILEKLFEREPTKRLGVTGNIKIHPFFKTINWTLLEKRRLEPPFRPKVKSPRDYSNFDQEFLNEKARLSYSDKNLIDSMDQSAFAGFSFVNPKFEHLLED

[6] = intermittent TPPB 0.7 2× per week i.p. + TMZ 25 mg/kg oral, by 38
[7] = TPPB 200 μg/kg i.p. followed by radiotherapy, all mice

CC(C)[C@H]1C(=O)N[C@H](CO)Cc2cc(NC(=O)/C=C/C=C/c3ccc(C(F)(F)F)cc3)ccc2N1C [TPPB, (2E,4E)-N-[(2S,5S)-1,2,3,4,5,6-Hexahydro-5-(hydroxymethyl)-1-methyl-2-(1-methylethyl)-3-oxo-1,4-benzodiazocin-8-yl]-5-[4-(trifluoromethyl)phenyl]-2,4-pentadienamide]
cell dye-sharing in the SMS assay (percentage of acceptor cells) [1]: inhibition of cell dye-sharing | effect over control ([2]; continuous dosing with TPPB (0.2 mg/kg QD i.p. + TMZ 25)): no effect over control | anti-tumour effect (relative tumour volume) compared with TMZ 25 monotherapy [2, 6]: additive to the effect of temozolomide 25 mg/kg monotherapy | anti-tumour effect (relative tumour volume) compared with continuous TPPB 0.2 QD + TMZ 25 [2, 6]: superior to continuous treatment with TPPB | tumour growth ([2]; intermittent dosing with TPPB (+ TMZ 25)): tumour growth inhibition | tumour cell morphology ([3]; TPPB 200 μg/kg i.p. + radiotherapy, from day 35 after initiation of radiotherapy): marked change in morphology | outcome of orthotopic solid brain tumour ([3]; TPPB 200 μg/kg i.p. day -1, 6, 13, 20, radiotherapy 6 Gy days 0, 1, 2, by day 91): complete cure | tumour cells in field of view ([3]; TPPB 200 μg/kg i.p. day -1, 6, 13, 20, radiotherapy 6 Gy days 0, 1, 2, day 91): no detectable tumour cells | behavioural or clinical signs associated with the treatment [3, 7]: no behavioural or clinical signs | tolerability [3, 7]: well tolerated | activation of PKCα [4]: ++ | activation of PKCδ [5]: +
